Assay results reported in ChEMBL document CHEMBL1201862, “PubChem BioAssay data set” (2004).
Where “and” joins values, the source holds several entries; their conditions need not be identical. Identical values can stand only once. Calls of active or inactive are those of the source.

What was measured:
Escherichia coli = test: microbe, parasite or virus in culture
[1] = target: T1, Alkaline phosphatase, tissue-nonspecific isozyme (Homo sapiens, UniProt P05186); test: activation of tissue-nonspecific alkaline phosphatase – biochemical, TNAP isozyme, mouse IAP uHTS hits, selectivity assay for mouse IAP activator project, dose response (AID 488880); assay type: functional
T1 sequence (P05186 whole entry): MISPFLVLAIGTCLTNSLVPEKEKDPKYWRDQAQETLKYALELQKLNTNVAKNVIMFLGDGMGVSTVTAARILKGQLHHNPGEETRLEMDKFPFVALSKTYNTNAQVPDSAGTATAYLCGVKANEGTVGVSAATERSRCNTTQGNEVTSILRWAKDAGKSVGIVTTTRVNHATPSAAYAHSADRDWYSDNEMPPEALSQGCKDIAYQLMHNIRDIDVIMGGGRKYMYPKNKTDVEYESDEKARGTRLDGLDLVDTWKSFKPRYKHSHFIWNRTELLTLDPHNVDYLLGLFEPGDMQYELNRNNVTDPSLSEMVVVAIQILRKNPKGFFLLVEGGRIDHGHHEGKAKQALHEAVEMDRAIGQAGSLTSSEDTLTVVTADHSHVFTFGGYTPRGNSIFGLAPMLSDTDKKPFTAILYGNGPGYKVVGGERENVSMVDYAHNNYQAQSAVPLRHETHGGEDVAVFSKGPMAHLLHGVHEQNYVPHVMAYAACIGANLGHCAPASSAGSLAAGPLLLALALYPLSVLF

[2] = target: Intestinal-type alkaline phosphatase (Mus musculus, UniProt P24822); test: mouse intestinal alkaline phosphatase activators, dose response, biochemical, luminescence, uHTS hits (AID 488783); assay type: functional
Sequence of Intestinal-type alkaline phosphatase (Mus musculus, UniProt P24822) (P24822 whole entry): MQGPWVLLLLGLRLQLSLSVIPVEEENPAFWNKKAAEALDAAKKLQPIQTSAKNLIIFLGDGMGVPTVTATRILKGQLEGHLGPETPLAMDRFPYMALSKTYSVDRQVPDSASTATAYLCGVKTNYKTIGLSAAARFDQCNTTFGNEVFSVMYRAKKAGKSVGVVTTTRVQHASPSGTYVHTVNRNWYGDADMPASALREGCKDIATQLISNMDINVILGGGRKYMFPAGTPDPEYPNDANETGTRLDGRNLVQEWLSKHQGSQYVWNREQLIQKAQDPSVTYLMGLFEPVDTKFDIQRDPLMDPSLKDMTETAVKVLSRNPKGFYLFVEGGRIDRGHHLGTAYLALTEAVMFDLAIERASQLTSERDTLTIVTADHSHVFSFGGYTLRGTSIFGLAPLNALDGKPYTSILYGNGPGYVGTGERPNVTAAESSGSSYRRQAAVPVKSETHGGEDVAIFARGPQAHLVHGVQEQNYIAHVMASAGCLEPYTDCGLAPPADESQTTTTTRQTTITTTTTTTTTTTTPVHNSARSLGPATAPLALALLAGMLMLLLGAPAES

[3] = target: Intestinal-type alkaline phosphatase (Homo sapiens, UniProt P09923); test: activation of human intestinal alkaline phosphatase – biochemical, dose response (AID 488873); assay type: functional
Sequence of Intestinal-type alkaline phosphatase (Homo sapiens, UniProt P09923) (P09923 whole entry): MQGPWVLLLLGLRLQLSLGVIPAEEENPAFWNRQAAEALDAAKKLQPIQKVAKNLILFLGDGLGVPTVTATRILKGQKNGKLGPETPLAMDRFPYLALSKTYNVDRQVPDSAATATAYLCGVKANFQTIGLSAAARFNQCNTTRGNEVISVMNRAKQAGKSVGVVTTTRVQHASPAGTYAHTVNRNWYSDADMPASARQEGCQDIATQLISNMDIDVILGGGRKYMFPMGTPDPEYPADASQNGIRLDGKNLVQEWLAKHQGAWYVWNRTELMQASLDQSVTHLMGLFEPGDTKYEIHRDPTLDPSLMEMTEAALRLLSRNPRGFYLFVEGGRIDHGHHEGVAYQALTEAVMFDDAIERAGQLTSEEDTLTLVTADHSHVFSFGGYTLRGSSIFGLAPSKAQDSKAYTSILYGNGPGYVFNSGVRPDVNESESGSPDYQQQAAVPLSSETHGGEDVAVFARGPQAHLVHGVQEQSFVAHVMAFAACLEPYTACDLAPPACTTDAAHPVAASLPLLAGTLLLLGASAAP

[4] = target: Beta-adrenergic receptor kinase 1 (Homo sapiens, UniProt P25098); test: aptamer displacement from bead-bound GRK2 – biochemical, cherry pick 1, bead flow cytometry, dose response (AID 504500)
Sequence of Beta-adrenergic receptor kinase 1 (P25098 whole entry): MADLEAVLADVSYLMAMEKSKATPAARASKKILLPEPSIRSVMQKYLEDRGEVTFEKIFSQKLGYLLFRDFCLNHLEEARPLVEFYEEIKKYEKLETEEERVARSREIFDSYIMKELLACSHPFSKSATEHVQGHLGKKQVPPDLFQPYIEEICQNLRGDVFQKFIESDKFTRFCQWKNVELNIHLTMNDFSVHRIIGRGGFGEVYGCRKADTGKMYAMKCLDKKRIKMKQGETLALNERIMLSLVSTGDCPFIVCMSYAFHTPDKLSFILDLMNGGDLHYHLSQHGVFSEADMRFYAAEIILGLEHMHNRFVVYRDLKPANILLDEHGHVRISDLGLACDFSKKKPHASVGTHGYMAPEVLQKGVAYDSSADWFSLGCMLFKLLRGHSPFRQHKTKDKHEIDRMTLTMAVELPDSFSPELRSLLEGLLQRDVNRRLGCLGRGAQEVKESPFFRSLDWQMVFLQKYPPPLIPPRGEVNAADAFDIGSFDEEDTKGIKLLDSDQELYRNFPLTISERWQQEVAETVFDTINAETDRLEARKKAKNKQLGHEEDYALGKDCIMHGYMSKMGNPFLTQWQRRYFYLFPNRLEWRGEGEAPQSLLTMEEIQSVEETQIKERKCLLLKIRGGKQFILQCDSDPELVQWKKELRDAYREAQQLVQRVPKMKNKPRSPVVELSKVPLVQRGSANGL

[5] = target: T2, Dual specificity protein phosphatase 6 (Rattus norvegicus, UniProt Q64346); test: inhibition of rat DUSP6 enzyme activity – biochemical, in vitro, primary screen (AID 425)
T2 sequence (Q64346 whole entry): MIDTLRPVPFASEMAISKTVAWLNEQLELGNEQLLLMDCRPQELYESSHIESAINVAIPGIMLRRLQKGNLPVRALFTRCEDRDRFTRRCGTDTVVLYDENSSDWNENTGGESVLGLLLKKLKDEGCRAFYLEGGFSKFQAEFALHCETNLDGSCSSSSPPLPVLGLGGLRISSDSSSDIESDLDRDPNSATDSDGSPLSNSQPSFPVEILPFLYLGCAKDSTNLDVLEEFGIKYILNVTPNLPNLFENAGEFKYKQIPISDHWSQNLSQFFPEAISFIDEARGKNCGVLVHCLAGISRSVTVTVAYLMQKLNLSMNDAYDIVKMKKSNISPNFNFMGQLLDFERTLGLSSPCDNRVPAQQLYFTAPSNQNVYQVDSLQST

[6] = Luminescence Cell-Based Dose Retest to Confirm Inhibitors of Cancer Stem Cells. [Related pubchem assays (depositor defined):AID2717, AID2721]; assay type: functional; conditions: Homo sapiens
[7] = viability loss of HMLE_sh_eGFP cells – cell-based, luminescence, counter-screen for HMLE_sh_ECad selective toxicity project, dose response (AID 463074); assay type: functional, Homo sapiens;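 note: HMLE human mammary epithelial cells expressing control shRNA against eGFP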
[8] = restored growth of temperature-sensitive Burl-1 yeast – whole organism, S. cerevisiae, Burl-1 ts mutant, luminescence, counter-screen for SUMOylation pathway inhibitor project, dose response (AID 463199); assay type: functional
[9] = target: Nucleotide-binding oligomerization domain-containing protein 1 (Homo sapiens, UniProt Q9Y239); test: blockers of NOD1 pathway activity – revised, SAR follow-up (AID 2333); assay type: functional
Sequence of Nucleotide-binding oligomerization domain-containing protein 1 (Q9Y239 whole entry, the tested form may be a part): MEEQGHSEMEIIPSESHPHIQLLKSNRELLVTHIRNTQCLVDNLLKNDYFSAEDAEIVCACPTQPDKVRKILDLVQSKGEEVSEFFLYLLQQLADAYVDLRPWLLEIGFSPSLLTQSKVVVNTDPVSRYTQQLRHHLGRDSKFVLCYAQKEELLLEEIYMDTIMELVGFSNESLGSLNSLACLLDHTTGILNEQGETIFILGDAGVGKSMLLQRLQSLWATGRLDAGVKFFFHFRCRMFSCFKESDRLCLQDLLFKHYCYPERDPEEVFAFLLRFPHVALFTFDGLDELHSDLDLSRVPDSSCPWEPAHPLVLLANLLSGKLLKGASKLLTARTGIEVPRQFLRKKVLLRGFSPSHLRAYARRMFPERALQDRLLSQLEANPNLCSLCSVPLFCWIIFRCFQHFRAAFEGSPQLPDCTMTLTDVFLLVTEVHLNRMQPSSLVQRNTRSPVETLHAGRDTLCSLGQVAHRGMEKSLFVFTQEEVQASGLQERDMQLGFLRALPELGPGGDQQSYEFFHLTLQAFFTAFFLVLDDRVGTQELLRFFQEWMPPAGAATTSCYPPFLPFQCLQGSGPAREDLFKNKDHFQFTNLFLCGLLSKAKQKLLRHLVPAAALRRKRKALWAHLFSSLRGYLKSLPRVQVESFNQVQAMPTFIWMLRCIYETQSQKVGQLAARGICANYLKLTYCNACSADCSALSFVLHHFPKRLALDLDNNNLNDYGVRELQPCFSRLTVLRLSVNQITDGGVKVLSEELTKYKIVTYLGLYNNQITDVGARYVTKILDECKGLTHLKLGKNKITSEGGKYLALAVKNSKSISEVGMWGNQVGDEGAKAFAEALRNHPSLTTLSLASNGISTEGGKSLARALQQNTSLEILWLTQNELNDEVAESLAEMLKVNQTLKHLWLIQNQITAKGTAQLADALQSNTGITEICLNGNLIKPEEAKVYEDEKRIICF

[10] = target: T3, Long-chain-fatty-acid--AMP ligase FadD28 (Mycobacterium tuberculosis, UniProt P9WQ59); test: Fluorescence polarization aasay to screen for inhibitors that compete for the binding of FadD28 to a bisubstrate Measured in Biochemical System Using Plate Reader - 2147-01_Inhibitor_Dose_CherryPick_Activity.; assay type: functional, Mycobacterium tuberculosis H37Rv
T3 sequence (P9WQ59 whole entry): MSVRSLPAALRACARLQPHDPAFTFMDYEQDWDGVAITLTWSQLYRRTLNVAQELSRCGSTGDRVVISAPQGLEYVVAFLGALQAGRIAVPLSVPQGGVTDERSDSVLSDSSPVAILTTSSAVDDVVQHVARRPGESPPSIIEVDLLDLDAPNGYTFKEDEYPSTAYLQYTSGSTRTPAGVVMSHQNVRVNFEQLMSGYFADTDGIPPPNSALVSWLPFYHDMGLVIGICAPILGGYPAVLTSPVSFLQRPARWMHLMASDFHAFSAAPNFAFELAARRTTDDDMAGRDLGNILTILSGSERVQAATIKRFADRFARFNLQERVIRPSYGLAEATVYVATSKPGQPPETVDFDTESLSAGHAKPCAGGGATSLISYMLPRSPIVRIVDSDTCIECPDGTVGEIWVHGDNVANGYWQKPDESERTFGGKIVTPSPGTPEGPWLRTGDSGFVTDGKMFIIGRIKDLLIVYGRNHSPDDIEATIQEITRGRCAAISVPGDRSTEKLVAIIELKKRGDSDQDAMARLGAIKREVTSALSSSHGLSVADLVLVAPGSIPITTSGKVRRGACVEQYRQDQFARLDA

[11] = target: Nucleotide-binding oligomerization domain-containing protein 2 (Homo sapiens, UniProt Q9HC29); test: PubChem AID 2334; assay type: functional
Sequence of Nucleotide-binding oligomerization domain-containing protein 2 (Q9HC29 whole entry, the tested form may be a part): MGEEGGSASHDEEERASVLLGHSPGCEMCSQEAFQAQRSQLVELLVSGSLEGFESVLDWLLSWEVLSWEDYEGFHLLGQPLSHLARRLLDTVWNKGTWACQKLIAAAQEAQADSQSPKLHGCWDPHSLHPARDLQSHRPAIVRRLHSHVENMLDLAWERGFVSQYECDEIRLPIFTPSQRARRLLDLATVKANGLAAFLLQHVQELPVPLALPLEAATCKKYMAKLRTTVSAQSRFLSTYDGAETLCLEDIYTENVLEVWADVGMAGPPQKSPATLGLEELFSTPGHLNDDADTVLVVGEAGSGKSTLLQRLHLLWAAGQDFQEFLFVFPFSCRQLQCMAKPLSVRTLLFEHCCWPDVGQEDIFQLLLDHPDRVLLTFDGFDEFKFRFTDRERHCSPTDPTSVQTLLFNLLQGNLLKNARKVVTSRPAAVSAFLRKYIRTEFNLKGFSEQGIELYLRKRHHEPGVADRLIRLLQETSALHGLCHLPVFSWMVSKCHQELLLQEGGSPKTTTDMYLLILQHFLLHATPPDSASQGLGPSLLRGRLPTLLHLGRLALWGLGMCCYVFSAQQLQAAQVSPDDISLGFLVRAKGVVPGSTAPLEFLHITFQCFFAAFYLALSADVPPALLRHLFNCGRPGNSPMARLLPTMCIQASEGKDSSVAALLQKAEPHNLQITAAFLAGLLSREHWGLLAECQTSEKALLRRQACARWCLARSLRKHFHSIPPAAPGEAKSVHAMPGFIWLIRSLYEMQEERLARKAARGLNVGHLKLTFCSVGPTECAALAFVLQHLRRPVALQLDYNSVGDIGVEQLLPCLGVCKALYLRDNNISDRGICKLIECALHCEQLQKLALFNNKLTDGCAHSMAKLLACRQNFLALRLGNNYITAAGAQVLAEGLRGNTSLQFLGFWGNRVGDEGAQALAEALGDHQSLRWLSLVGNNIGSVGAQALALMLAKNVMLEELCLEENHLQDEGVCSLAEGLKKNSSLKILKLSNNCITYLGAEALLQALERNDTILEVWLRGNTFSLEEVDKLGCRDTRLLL

HEK293 [12] = test: cells; assay type: functional, cell-based; conditions: Homo sapiens
HEK293 [13] = test: cells; assay type: functional, cell-based; conditions: Homo sapiens; remark: listed apart in the source
Tumor necrosis factor = Tumor necrosis factor (Homo sapiens, UniProt P01375); test: analog potency on TNFa NF-kB signaling – cell-based, revised, SAR follow-up (AID 2337); assay type: functional
Sequence of Tumor necrosis factor (P01375 whole entry): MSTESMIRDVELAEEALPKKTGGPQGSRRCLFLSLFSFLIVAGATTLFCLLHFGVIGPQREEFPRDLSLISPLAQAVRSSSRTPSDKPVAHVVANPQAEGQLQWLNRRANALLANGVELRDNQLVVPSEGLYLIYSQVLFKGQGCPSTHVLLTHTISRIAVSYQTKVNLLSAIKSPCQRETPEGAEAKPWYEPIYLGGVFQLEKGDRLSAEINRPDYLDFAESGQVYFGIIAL

HEK293 [14] = test: inhibition of NOD1-driven NF-kB reporter – cell-based, luminescence, uHTS, primary screen (AID 1578); assay type: functional; conditions: Homo sapiens
HEK293 [15] = test: NOD2 signaling inhibitors in MDP-stimulated cells, cell-based, uHTS, luminescence (AID 2001); assay type: functional; conditions: Homo sapiens
HEK293 [16] = test: cells; conditions: Homo sapiens
HeLa = test: ATP-based viability loss in HeLa cells – cell-based, CellTiter-Glo luminescence, cherry-pick samples, cytotoxicity control for MITF activator project, dose response (AID 540259); assay type: functional; conditions: Homo sapiens
[17] = Luminescence Cell-Based Dose Response HTS to Identify Activators of Luciferase Translation or Activity in H4 […] Cells. [Related pubchem assays: 1829 (Project Summary), 1814 (Primary HTS)]; assay type: functional
H4 = test: Luminescence Cell-Based Dose Response HTS to Identify Activators of 5'UTR Stem-Loop Driven Prion Protein mRNA Translation in H4 Neuroglioblastoma Cells. [Related pubchem assays: 1829 (Project Summary), 1814 (Primary HTS)]; assay type: functional; conditions: Homo sapiens
[18] = A Cell-Based Confirmatory Screen for Compounds that Inhibit VEEV, TC-83 (6).; assay type: functional
[19] = A Cell-Based Counter Screen testing Compounds that Inhibit VEEV TC-83, in strain KU V3526.; assay type: functional
[20] = A Cell-Based Confirmatory Screen for Compounds that Inhibit VEEV, TC-83 (7).; assay type: functional
[21] = A Cell-Based Confirmatory Screen for Compounds that Inhibit VEEV TC-83 (4).; assay type: functional
[22] = A Cell-Based Confirmatory Screen for Compounds that Inhibit VEEV, TC-83 (3).; assay type: functional
Vero = test: cells; assay type: functional, cell-based; conditions: Chlorocebus sabaeus
[23] = A Cell-Based Confirmatory Screen for Compounds that Inhibit VEEV, TC-83 (8).; assay type: functional
[24] = A Cell-Based Confirmatory Screen for Compounds that Inhibit VEEV, TC-83 (2).; assay type: functional
Phospholipase D2 = Phospholipase D2 (Homo sapiens, UniProt O14939); test: cellular phospholipase D2 inhibition IC50 – cell-based, dose response (AID 602147); assay type: functional;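 note: cellular assay in HEK293 cells overexpressing GFP-tagged PLD2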
Phospholipase D1 [25] = target: T4, Phospholipase D1 (Homo sapiens, UniProt Q13393); test: cellular phospholipase D1 inhibition IC50 – cell-based, dose response (AID 602151); assay type: functional;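 note: cellular PLD1 assay in Calu-1 cells stimulated with PMA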
T4 sequence (Q13393 whole entry): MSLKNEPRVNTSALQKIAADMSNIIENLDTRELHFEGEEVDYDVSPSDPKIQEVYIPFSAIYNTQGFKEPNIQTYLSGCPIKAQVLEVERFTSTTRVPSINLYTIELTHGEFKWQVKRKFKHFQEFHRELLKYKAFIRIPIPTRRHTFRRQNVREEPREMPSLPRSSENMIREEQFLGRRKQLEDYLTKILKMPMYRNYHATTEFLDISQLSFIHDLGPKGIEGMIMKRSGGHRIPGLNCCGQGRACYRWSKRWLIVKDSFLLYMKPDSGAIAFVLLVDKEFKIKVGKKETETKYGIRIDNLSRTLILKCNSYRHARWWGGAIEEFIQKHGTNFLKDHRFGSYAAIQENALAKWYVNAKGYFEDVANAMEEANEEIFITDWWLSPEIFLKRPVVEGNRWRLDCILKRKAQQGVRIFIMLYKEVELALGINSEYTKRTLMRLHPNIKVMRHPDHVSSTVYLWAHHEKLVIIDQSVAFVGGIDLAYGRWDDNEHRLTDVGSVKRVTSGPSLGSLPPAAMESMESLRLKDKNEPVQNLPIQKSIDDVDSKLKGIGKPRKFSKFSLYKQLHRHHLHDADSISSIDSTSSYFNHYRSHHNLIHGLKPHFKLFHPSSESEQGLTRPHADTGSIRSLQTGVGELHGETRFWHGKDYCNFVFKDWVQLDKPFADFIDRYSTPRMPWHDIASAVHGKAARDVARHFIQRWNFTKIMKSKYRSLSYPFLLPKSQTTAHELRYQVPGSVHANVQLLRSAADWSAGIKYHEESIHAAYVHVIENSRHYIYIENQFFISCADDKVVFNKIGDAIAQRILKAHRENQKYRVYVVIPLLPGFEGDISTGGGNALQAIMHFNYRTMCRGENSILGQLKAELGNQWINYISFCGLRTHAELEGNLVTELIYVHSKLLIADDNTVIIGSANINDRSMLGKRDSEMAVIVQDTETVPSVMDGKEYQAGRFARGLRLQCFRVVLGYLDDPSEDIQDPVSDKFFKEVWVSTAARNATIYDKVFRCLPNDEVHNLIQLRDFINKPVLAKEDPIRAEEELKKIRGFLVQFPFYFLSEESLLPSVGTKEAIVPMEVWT

HEK293 [26] = test: HEK293T cell viability loss, resazurin readout – resazurin fluorescence, cytotoxicity control for NF-kB activator project, SAR follow-up (AID 493251); assay type: functional, cell-based; conditions: Homo sapiens
Jurkat = test: SAR Analysis of small molecule inhibitors of T-cell specific antigen receptor-induced NF-kB activation in a Jurkat cell line using a luminescence assay - Set 2. [Related pubchem assays (depositor defined):AID435003, AID435012, AID465]; assay type: functional, cell-based; conditions: Homo sapiens
HEK293 [27] = test: SAR Analysis of small molecule inhibitors of T-cell specific antigen receptor-induced NF-kB activation in a HEK-293T cell line using a luminescence assay - Set 2. [Related pubchem assays (depositor defined):AID435003, AID435012, AID489026]; assay type: functional, cell-based; conditions: Homo sapiens
[28] = target: Lysine-specific demethylase 4C (Homo sapiens, UniProt Q9H3R0); test: inhibition of JMJD2C H3K9me3 demethylation – biochemical, DELFIA europium, cherry-picked samples, dose response (AID 488835); assay type: functional
Phospholipase D1 [29] = target: T4, Phospholipase D1; test: PLD1 purified enzyme concentration response. [Related pubchem assays (depositor defined):AID588854]; assay type: functional
A-375 [30] = test: proliferation inhibition in MITF-low A375 cells – cell-based, cherry-pick samples, set 2, counter-screen for MITF modulator project, dose response (AID 540335); assay type: functional; conditions: Homo sapiens
A-375 [31] = test: MITF: Counter assay: A375 proliferation Measured in Cell-Based System Using Plate Reader - 2084-03_Inhibitor_Dose_DryPowder_Activity. [Related pubchem assays (depositor defined):AID488944]; assay type: functional; conditions: Homo sapiens
[32] = target: Peroxisome proliferator-activated receptor gamma/Nuclear receptor coactivator 2 (Homo sapiens, UniProt P37231); assay type: functional;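 note: agonist potency for raising coactivator recruitment to the receptor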
[33] = target: Peroxisome proliferator-activated receptor gamma/Nuclear receptor coactivator 1 (Homo sapiens, UniProt P37231); assay type: functional;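 note: agonist potency as compounds enhance coactivator SRC-1 recruitment to PPARgamma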
[34] = target: Peroxisome proliferator-activated receptor gamma/Nuclear receptor coactivator 3 (Homo sapiens, UniProt P37231); assay type: functional;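 note: agonist potency for raising coactivator recruitment to the receptor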
[35] = target: Voltage-gated inwardly rectifying potassium channel KCNH2 (Homo sapiens, UniProt Q12809); conditions: Potency;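 note: confirmatory quantitative high-throughput screen measuring inhibition of hERG channel activity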

Structure (SMILES): COC(C(=O)Nc1ccnn1C1CCN(C(=O)c2ccc(C=O)cc2)CC1)c1ccccc1 (configuration not stated)
- AC50 (Escherichia coli): 26.2 µM (active)

Structure (SMILES): CCOC(=O)C(C)Sc1nc2c(c(=O)[nH]c(=O)n2C)n1C/C=C(/C)Cl (configuration not stated)
- EC50 [1]: 66.9 µM (active)
- EC50 [2]: 69.8 µM (active)
- EC50 [3]: 74.2 µM (active)
- EC50 [4]: 22.1 µM (inactive)
- IC50 [5]: > 10 µM (not active)

Structure (SMILES): COc1ccc(C(=O)NNc2ccccc2)cc1
- AC50 [6]: 9.98 µM (active)
- AC50 [7]: 21.4 µM (active)

Structure (SMILES): O=C(CNC(=O)c1ccco1)OCC(=O)c1cccc2ccccc12
- AC50 [8]: 54.6 µM (active)

Structure (SMILES): COc1cc(/C=C2/C(=O)NN(c3cccc(Cl)c3)C2=O)cc(Br)c1O
- IC50 [9]: 3.49 µM (active)
- AC50 [10]: > 100 µM (inactive)
- IC50 [11]: > 20 µM (inactive)
- IC50 (HEK293 [12]): > 20 µM (inactive)
- IC50 (HEK293 [13]): > 20 µM (inactive)
- IC50 (Tumor necrosis factor): > 20 µM (inactive)
- EC50 (HEK293 [14]): 8.57 µM (active)
- IC50 (HEK293 [15]): > 20 µM (inactive)
- IC50 (HEK293 [16]): > 20 µM (inactive)

Structure (SMILES): CCCc1cc2c(=O)c(-c3ccccn3)coc2cc1OC
- AC50 (HeLa): 73.5 µM (active)
- EC50 [17]: 0.182 µM (active)
- EC50 (H4): > 120 µM (not active)

Structure (SMILES): CCN1CCN(Cc2nc3ccc([N+](=O)[O-])cc3c(=O)n2-c2ccccc2F)CC1
- IC50 [18]: 1.01 µM (active)
- IC50 [19]: 0.97 µM (active)
- IC50 [20]: 0.81 µM (active)
- IC50 [21]: 0.67 µM (active)
- IC50 [22]: < 0.96 µM (active)
- IC50 (Vero): 1.91 µM (active)
- IC50 [23]: 810 nM (active) and 695 nM (active)
- IC50 [24]: 0.97 µM (active)

Structure (SMILES): CN(CCN1CCC2(CC1)C(=O)NCN2c1ccccc1)C(=O)c1ccc2ccccc2c1
- IC50 (Phospholipase D2): 20 µM (active)
- IC50 (Phospholipase D1 [25]): 20 µM (inactive)

Structure (SMILES): Cc1ccc(C(NC(=O)C2CCCCC2)c2ccc3cccnc3c2O)cc1 (configuration not stated)
- IC50 (HEK293 [26]): 21 µM (inactive)
- IC50 (Jurkat): 2.62 µM (active)
- IC50 (HEK293 [27]): 4.93 µM (active)

Structure (SMILES): Cc1ccc(NN=Nc2nc3c(=O)n(C)c(=O)n(C)c3[nH]2)cc1
- AC50 [28]: 24.7 µM (active)

Structure (SMILES): O=C(NCCN1CCC2(CC1)C(=O)NCN2c1ccccc1)c1cnc2ccccc2c1
- IC50 (Phospholipase D1 [29]): 20 µM (active)

Structure (SMILES): CC(C)OC(=O)CSc1nc2cc3c(cc2cc1C#N)OCO3
- AC50 (A-375 [30]): > 35 µM (active)
- AC50 (A-375 [31]): > 35 µM (active)
- EC50 [32]: 10.2 µM (not active)
- EC50 [33]: 11.9 µM (not active)
- EC50 [34]: 18.3 µM (not active)

Structure (SMILES): CN(C)CCC(c1ccccc1)c1ccccn1 (configuration not stated)
- AC50 [35]: 35.5 µM (inconclusive)
